Patent US20230044943A1, “Pharmaceutical Combinations” (ARRAY BIOPHARMA INC., priority 2016, published 2023)

Assays:
[1] = test system: HT-29 BRAF mutant colorectal cancer (CRC) xenograft tumor model; experiment: Anti-tumor efficacy in HT-29 colon cancer xenograft model (study TRP-377-HT29-XEF); format: in vivo, female nude mice (Mus musculus); conditions: HT-29 xenograft, day 43 after 21 days of treatment; LGX818 20 mg/kg po qd, MEK162 3.5 mg/kg po bid, cetuximab 20 mg/kg ip 2qw
Description: (§1) Animals were weight at dosing day(s) and dose was body weight adjusted, dosing volume was 10 mL/kg. Tumor dimensions and body weights were collected at the time of randomization and twice weekly thereafter for the study duration. The following data were provided after each day of data collection: incidence of mortality, individual and group average body weights, and individual and group average tumor volume.
All data were expressed as mean±standard error of the mean (SEM). […] For all statistical evaluations, the level of significance was set at p<0.05. Significance compared to the vehicle control group is reported unless otherwise stated.

[2] = Stability of test compound dosing formulation; format: physicochemical
Description: LGX818 was dissolved in 0.5% CMC/0.5% Tween 80.
MEK162 was dissolved in 1% CMC/0.5% Tween 80.

[3] = Tolerability (body weight change, adverse events) in study TRP-377-HT29-XEF; format: in vivo; conditions: mean ± SEM, day of maximum change in parentheses; HT-29 tumor-bearing nude mice; LGX818 20 mg/kg po qd, MEK162 3.5 mg/kg po bid, cetuximab 20 mg/kg ip 2qw
Description: Animal wellbeing and behavior, including grooming and ambulation were monitored twice daily. General health of mice was monitored and mortality recorded daily. Any moribund animals were sacrificed.
as §1
The % change in body was calculated as (BWcurrent−BWinitial)/(BWinitial)×100. Data is presented as percent body weight change from the day of treatment initiation.

Row | SMILES | T/C (percent tumor volume change treated over control group) [1] | Stability of dosing formulation ([2]; dissolved in 0.5% CMC/0.5% Tween 80, room temperature) | % Maximum BW change (day) [3] | Stability of dosing formulation ([2]; dissolved in 1% CMC/0.5% Tween 80, room temperature)
1 | COC(=O)N[C@@H](C)CNc1nccc(-c2cn(C(C)C)nc2-c2cc(Cl)cc(NS(C)(=O)=O)c2F)n1 [LGX818, methyl N-[(2S)-1-({4-[3-(5-chloro-2-fluoro-3-methanesulfonamidophenyl)-1-(propan-2-yl)-1H-pyrazol-4-yl]pyrimidin-2-yl}amino)propan-2-yl]carbamate] | 42% | stable for at least one week | −1.6 ± 0.98 (day 29) % | –
2 | Cn1cnc2c(F)c(Nc3ccc(Br)cc3F)c(C(=O)NOCCO)cc21 [MEK162, 6-(4-bromo-2-fluorophenylamino)-7-fluoro-3-methyl-3H-benzoimidazole-5-carboxylic acid (2-hydroxyethoxy)-amide] | 28% | – | −4.1 ± 1.02 (day 29) % | stable for at least one week
